Values quoted from earlier work, collected in paper PMC11734723 (Science Advances, 2025).

Key:
[1] = test system: collagen-induced arthritis (CIA) mouse model; conditions: administered beginning at the time of arthritis induction; cited from earlier work
[2] = test system: RANKL-induced osteoclast differentiation; conditions: cited from earlier work
[3] = test system: Orai channels; conditions: cited from earlier work

Compound: CCC(=O)Nc1ccc(Cl)c(Cl)c1 [3,4-dichloropropionanilide]
- effect on arthritis [1]: reduces arthritis
- inhibition of RANKL-induced osteoclastogenesis ([2]; 100 nM): failed to inhibit
- formation of bone-degrading osteoclasts ([2]; in vitro): reduced
- concentration needed to block RANKL-induced osteoclast differentiation ([2]; in vitro, not blocked at concentrations below this): ≥ 10 µM
- effect on Orai channels [3]: inhibits
